Consider 15 compounds from ChEMBL document CHEMBL3272262, “Basic derivatives of 6,7-dihydroindolo(1,7-ab)(1) benzazepine and 6H-indolo(7,1-cd)(1,5) benzoxazepine as potential antidepressant agents” (J Med Chem, 1976).

As usually defined, the LD50 is the dose expected to kill half of the subjects tested.

Data set [1] can be described thus: Acute toxicity in po dosed Swiss mouse assessed as mortality after 7 days. It counts as organism-based. Conditions: in vivo.
The test system of data set [2] is Mus musculus. The data set can be described thus: Toxicity in po dosed Swiss mouse assessed as behavioral changes. Conditions: in vivo. Format: organism-based.
For data set [3], the system named is Mus musculus. Nature of the data set: Antidepressant activity in po dosed Swiss mouse assessed as reversal of reserpine-induced ptosis administered 1 hr prior to reserpine challenge. It counts as functional.
Data set [4] relates to Mus musculus. Nature of the data set: Antidepressant activity in po dosed Swiss mouse assessed as reversal of reserpine-induced hypothermia measured over 5 hrs. It counts as functional.
In data set [5] the test system is Ileum. Nature of the data set: Antispasmodic activity in guinea pig ileum assessed as inhibition of acetylcholine-induced spasm. Format: functional. Conditions: Cavia porcellus, read-out: ED50 (the source's name).
Data set [6] deals with Ileum. The data set can be described thus: Antispasmodic activity in guinea pig ileum assessed as inhibition of histamine-induced spasm. Format: functional. Conditions: Cavia porcellus, read-out: ED50 (the source's name).

Converted amounts (≈) assume the structure as drawn.

Regarding `Cc1c(CCN(C)C)n2c3c(cccc13)COc1ccccc1-2.Cl`, the median lethal dose (LD50) at 168 h in data set [1] was found to be 310 mg/kg. Also, the Activity entry in data set [2] is given as “Non-toxic”. Besides, the figures for the MED50 in data set [3] and in data set [4] were 10 mg/kg and more than 50 mg/kg, respectively.
For `CN(C)CCc1cc2cccc3c2n1-c1ccccc1OC3.Cl`, the LD50 at 168 h in data set [1] came out at 195 mg/kg. The figures for the EC50 in data set [5] and in data set [6] were 10 µg/mL and 1 µg/mL, respectively. For the same compound, in data set [2], the Activity entry was “Non-toxic”. Besides, the MED50 was determined as 3 mg/kg in data set [3] and 50 mg/kg in data set [4].
Consider `CN(C)CCc1cc2cccc3c2n1-c1ccccc1CC3`, for which, in data set [1], the LD50 at 168 h was determined as 420 mg/kg. The EC50 in data set [5] stood at 1 µg/mL (≈ 3.44 µM); in data set [6], 0.2 µg/mL (≈ 0.689 µM). The Activity entry in data set [2] is given as “Non-toxic”. The values for the MED50 in data set [3] and in data set [4] were 2 mg/kg and 5 mg/kg, respectively.
As for `Cl.c1ccc(CN(CCc2cc3cccc4c3n2-c2ccccc2CC4)Cc2ccccc2)cc1`, in data set [1], the LD50 at 168 h turned out to be 1400 mg/kg. Besides, the EC50 in data set [5] and in data set [6] was more than 10 µg/mL throughout. Besides, the Activity entry in data set [2] is “Non-toxic”. Besides, the MED50 in data set [3] was 50 mg/kg; in data set [4], more than 50 mg/kg.
Take `CNCCc1cc2cccc3c2n1-c1ccccc1CC3.Cl`: the LD50 at 168 h in data set [1] was 410 mg/kg. Moreover, the EC50 turned out to be 4 µg/mL in data set [5] and 0.6 µg/mL in data set [6]. Moreover, in data set [2], the Activity result is “Non-toxic”. Further, the results for the MED50 in data set [3] and in data set [4] were 1 mg/kg and 2.5 mg/kg, respectively.
On to `Cc1c(CCN(C)C)n2c3c(cccc13)CCc1ccccc1-2`, for which, in data set [1], the LD50 at 168 h was determined as 195 mg/kg. The EC50 in data set [5] and in data set [6] was more than 10 µg/mL each time. In addition, the Activity entry in data set [2] is recorded as “Non-toxic”. The values for the MED50 in data set [3] and in data set [4] were 7.5 mg/kg and more than 50 mg/kg, respectively.
In the case of `Cc1c(CCN(C)Cc2ccccc2)n2c3c(cccc13)CCc1ccccc1-2.Cl`, the LD50 at 168 h in data set [1] was more than 4000 mg/kg. Also, the Activity result in data set [2] is reported as “Non-toxic”. Moreover, the MED50 in data set [3] and in data set [4] was more than 50 mg/kg throughout.
As to `CNCCc1c(C)c2cccc3c2n1-c1ccccc1CC3.Cl`, in data set [1], the LD50 at 168 h turned out to be 390 mg/kg. Further, the EC50 in data set [5] was determined as 6 µg/mL; in data set [6] it was 5 µg/mL. The Activity entry in data set [2] was “Non-toxic”. For the same compound, the values for the MED50 in data set [3] and in data set [4] were 2.5 mg/kg and more than 50 mg/kg, respectively.
With `CN(C)Cc1cc2cccc3c2n1-c1ccccc1CC3`, in data set [1], the LD50 at 168 h was 210 mg/kg. The Activity entry in data set [2] is listed as “Non-toxic”. Besides, the MED50 in data set [3] and in data set [4] was more than 50 mg/kg throughout.
For `CN(C)CCc1c(-c2ccccc2)c2cccc3c2n1-c1ccccc1CC3`, the LD50 at 168 h in data set [1] came to 1900 mg/kg. The Activity entry in data set [2] was “Non-toxic”. Moreover, the MED50 in data set [3] and in data set [4] was more than 50 mg/kg in each case.
Consider `CN(C)Cc1cn2c3c(cccc13)CCc1ccccc1-2.Cl`, for which, in data set [1], the LD50 at 168 h turned out to be 170 mg/kg. Also, in data set [2], the Activity result is “Non-toxic”. For the same compound, the MED50 in data set [3] and in data set [4] was more than 50 mg/kg each time.
Turning to `Cc1c(CN(C)C)c2cccc3c2n1-c1ccccc1CC3`, the 50% lethal dose (LD50) at 168 h in data set [1] was found to be 450 mg/kg. The Activity entry in data set [2] is recorded as “Non-toxic”. Besides, the MED50 in data set [3] and in data set [4] was more than 50 mg/kg in each case.
Take `CN(C)Cc1c(-c2ccccc2)n2c3c(cccc13)CCc1ccccc1-2`: in data set [1], the LD50 at 168 h stood at 1600 mg/kg. In addition, the Activity entry in data set [2] is recorded as “Non-toxic”. The MED50 in data set [3] and in data set [4] was more than 50 mg/kg each time.
On to `CN(CCc1cc2cccc3c2n1-c1ccccc1CC3)Cc1ccccc1.Cl` [AZIPRAMINE HYDROCHLORIDE], for which the LD50 at 168 h in data set [1] is more than 4000 mg/kg. Also, the EC50 in data set [5] and in data set [6] was more than 5 µg/mL throughout. In data set [2], the Activity result is given as “Non-toxic”. Besides, the MED50 worked out at 3.5 mg/kg in data set [3] and 5 mg/kg in data set [4].
For `CN(C)CCCN1c2ccccc2CCc2ccccc21` [IMIPRAMINE], the EC50 in data set [5] was found to be 0.3 µg/mL (≈ 1.07 µM); in data set [6] it was 0.006 µg/mL (≈ 0.0214 µM). Further, the MED50 in data set [3] and in data set [4] was 2.5 mg/kg each time.
